Laboratory results reported in patent US9597417B2, “Compositions and methods to evaluate hepatobiliary/gastrointestinal health, enterohepatic circulation, and drug interactions” (The United States of America as represented by the …, priority 2013, dated 2017).
Values after ≈ are worked out from the molar mass of the structure shown. Values joined by “and” are separate entries in the source; they are usually repeats but may differ in a detail not shown here. Equal entries are not always repeated. “Also recorded” adds a separate entry of the source. Where two headings read alike, the source gives them in different places.

Assays:
[1] = Murine gallbladder imaging (mouse 6), 19F MRI and LC/MS/MS; assay type: in vivo, C57BL/6 mice; settings: for concentration at 8.2 h: male, mouse 6, after imaging
[2] = target: choloylglycine hydrolase from Clostridium perfringens (Clostridium perfringens, UniProt P54965); settings: 2 mM compound, 15 U CGH, pH 5.6, 37° C., ±SEM
Chain of choloylglycine hydrolase from Clostridium perfringens (P54965 whole entry, looked up): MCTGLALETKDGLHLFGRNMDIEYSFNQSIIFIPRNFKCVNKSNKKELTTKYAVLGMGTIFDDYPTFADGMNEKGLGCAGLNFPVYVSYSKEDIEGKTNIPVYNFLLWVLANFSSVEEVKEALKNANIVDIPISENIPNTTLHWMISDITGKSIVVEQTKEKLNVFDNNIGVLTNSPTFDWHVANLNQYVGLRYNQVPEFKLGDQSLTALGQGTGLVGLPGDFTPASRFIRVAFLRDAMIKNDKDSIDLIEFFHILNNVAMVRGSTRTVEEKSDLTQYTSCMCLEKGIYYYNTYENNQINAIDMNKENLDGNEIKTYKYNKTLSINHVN

[3] = target: T1, human apical sodium dependent bile acid transporter (hASBT) (Homo sapiens, UniProt Q12908); assay: Uptake of substrate by ASBT in ASBT-MDCK cells; assay type: cell-based; settings: ASBT uptake
T1 sequence (Q12908 1-348): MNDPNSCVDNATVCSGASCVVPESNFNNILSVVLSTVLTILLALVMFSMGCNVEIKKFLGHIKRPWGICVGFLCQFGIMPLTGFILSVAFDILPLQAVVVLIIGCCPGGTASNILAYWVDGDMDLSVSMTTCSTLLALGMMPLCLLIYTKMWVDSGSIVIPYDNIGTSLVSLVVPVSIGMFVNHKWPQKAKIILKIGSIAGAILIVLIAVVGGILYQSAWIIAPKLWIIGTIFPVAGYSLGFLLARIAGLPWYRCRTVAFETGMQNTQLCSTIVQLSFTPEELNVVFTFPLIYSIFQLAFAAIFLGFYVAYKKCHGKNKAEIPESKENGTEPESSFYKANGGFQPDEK

[4] = target: T2, hASBT (sodium-independent passive uptake) (Homo sapiens, UniProt Q12908); assay: Uptake of substrate by ASBT in ASBT-MDCK cells; assay type: cell-based; settings: human; ASBT-MDCK cells, sodium free buffer; read-out: passive permeability (Pp)
T2 sequence (Q12908 1-348): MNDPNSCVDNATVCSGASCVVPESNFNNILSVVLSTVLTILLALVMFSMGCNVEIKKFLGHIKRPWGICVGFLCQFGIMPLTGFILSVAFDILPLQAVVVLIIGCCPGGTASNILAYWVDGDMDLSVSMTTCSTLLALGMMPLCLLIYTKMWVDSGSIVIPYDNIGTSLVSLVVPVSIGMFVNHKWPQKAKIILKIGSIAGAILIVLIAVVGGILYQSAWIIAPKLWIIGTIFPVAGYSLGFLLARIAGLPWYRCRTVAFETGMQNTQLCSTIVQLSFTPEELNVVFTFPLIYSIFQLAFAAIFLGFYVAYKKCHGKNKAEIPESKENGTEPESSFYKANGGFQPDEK

[5] = Oral disposition characterization: pilot study in mice; settings: for concentration at 7 h: male, C57BL/6, mouse, po
[6] = target: T3, hNTCP (sodium-independent passive uptake) (Homo sapiens, UniProt Q14973); assay: Uptake of substrate by NTCP in NTCP-HEK cells; assay type: cell-based; settings: human; NTCP-HEK cells, sodium free buffer; read-out: passive permeability (Pp)
T3 sequence (Q14973 1-349): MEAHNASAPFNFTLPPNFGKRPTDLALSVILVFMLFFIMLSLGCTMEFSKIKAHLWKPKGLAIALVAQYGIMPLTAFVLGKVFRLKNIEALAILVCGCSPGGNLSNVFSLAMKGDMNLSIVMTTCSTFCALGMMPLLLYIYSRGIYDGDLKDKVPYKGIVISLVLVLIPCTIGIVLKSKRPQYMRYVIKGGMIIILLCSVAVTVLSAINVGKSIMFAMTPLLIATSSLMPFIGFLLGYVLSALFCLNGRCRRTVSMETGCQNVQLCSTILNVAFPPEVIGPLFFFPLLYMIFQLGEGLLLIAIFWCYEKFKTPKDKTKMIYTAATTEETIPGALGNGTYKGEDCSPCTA

[7] = target: T4, human Na+/taurocholate cotransporting polypeptide (hNTCP) (Homo sapiens, UniProt Q14973); assay: Uptake of substrate by NTCP in NTCP-HEK cells; assay type: cell-based; settings: NTCP uptake
T4 sequence (Q14973 1-349): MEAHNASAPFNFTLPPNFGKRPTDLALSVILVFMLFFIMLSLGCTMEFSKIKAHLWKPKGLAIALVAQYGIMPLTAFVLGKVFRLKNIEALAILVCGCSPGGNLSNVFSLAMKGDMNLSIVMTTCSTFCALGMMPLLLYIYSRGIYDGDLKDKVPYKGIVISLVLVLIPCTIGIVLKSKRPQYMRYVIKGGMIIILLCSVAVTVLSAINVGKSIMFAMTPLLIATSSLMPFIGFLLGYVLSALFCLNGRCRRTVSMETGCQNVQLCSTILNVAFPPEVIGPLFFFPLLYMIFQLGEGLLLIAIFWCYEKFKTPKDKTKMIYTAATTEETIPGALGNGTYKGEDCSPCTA

[8] = In vitro stability in 0.1 M HCl, rat plasma, rat liver s9 fraction and simulated intestinal fluid; settings: 37° C.
[9] = target: T1, human apical sodium dependent bile acid transporter (hASBT); assay: Inhibition of taurocholate uptake by ASBT in stably transfected ASBT-MDCK cells; assay type: cell-based
[10] = target: T4, human Na+/taurocholate cotransporting polypeptide (hNTCP); assay: Inhibition of taurocholate uptake by NTCP in stably transfected NTCP-HEK cells; assay type: cell-based
Solubility in buffer = assay type: physicochemical; settings: phosphate buffer, aqueous buffer, thermodynamic from solid; pH 6.8, room temperature, overnight, n=3, ±SEM
Experimental: Five (5) mg of compound was added to silanized centrifuge tubes containing 100 μL phosphate buffer at pH 6.8 (n=3), shaken, and left overnight at room temperature. […] Supernatant was diluted 10,000-fold with 1:1 ACN:water and analyzed by LC/MS/MS.

[11] = Disposition in Asbt knockout (Slc10a2-/-) and wild-type mice; assay type: in vivo; settings: for gallbladder concentration / concentration at 7 h: n=4, 7 h after gavage 150 mg/kg, ±SEM; for gallbladder concentration: LC/MS/MS; for concentration at 7 h: mouse, oral, 150 mg/kg
Experimental: Asbt-deficient (Slc10a2-/-) mice were obtained from a colony maintained at the Wake Forest School of Medicine. […] Gallbladder, liver, and plasma samples were collected at 7 h after dosing, and tissues were processed as described above and analyzed by LC/MS/MS.

[12] = target: T4, human Na+/taurocholate cotransporting polypeptide (hNTCP); settings: literature / historic data, same cell line; read-out: NTCP Km; cited from earlier work
[13] = substrate: [H][C@@]12C[C@H](O)CC[C@]1(C)[C@@]1([H])C[C@H](O)[C@@]3(C)[C@@]([H])(CC[C@]3([H])C(C)CCC(=O)N(CCNC(=O)C(F)(F)F)CC(=O)O)[C@]1([H])[C@H](O)C2; assay: Uptake of substrate by NTCP in NTCP-HEK cells; assay type: cell-based, human; settings: other: uptake, 0-200 uM donor, hNTCP-HEK cells, ±SEM; 37.0 °C
[14] = substrate: [H][C@@]12C[C@H](O)CC[C@]1(C)[C@@]1([H])C[C@H](O)[C@@]3(C)[C@@]([H])(CC[C@]3([H])C(C)CCC(=O)N(CCNC(=O)C(F)(F)F)CC(=O)O)[C@]1([H])[C@H](O)C2; assay: Uptake of substrate by ASBT in ASBT-MDCK cells; assay type: cell-based, human; settings: other: uptake, 0-200 uM donor, hASBT-MDCK cells, ±SEM; 37.0 °C
[15] = individual mice 1-5, 7 h after oral 150 mg/kg, LC/MS/MS, 150 mg/kg

CC(CCC(=O)N(CCNC(=O)C(F)(F)F)CC(=O)O)[C@H]1CC[C@H]2[C@@H]3[C@H](O)C[C@@H]4C[C@H](O)CC[C@]4(C)[C@H]3C[C@H](O)[C@]12C (stereo partly shown) [CA-sar-TFMA, Cholic acid-sarcosine-trifluoro-N-methyl-acetamide]
concentration at 8.2 h ([1]; C57BL/6, liver, oral 150 mg/kg, read-out: liver concentration): 7660 nM
concentration at 8.2 h ([1]; C57BL/6, plasma, oral 150 mg/kg, read-out: plasma concentration): 870 nM
LC/MS/MS gallbladder concentration, fold lower than by MRI ([1]; mouse 6): 2.3 fold
gallbladder concentration by 19F MRI (gallbladder ROI normalized to phantom ROI) ([1]; mouse 6, 6.2-8.2 h after oral gavage of 150 mg/kg): 34.2 mM
gallbladder concentration by LC/MS/MS ([1]; mouse 6, after imaging and euthanasia, oral 150 mg/kg): 14.8 mM
compound remaining after 4 h [2]: 103.9±2.9%
normVmax (normalized to taurocholate Vmax on the same occasion) [3]: 1.50
Papp [4]: 0.21 ×10⁻⁶ cm/s
Gallbladder Conc. [5, 15]: 16.5 mM (2×) and 25.0 mM and 17.2 mM and 16.9 mM
Liver Conc. [5, 15]: 20.8 µM and 16.0 µM and 12.9 µM and 9.5 µM and 13.5 µM
Plasma Conc. [5, 15]: 1490 nM and 1810 nM and 940 nM and 1470 nM
concentration at 7 h ([5]; liver, 150 mg/kg, Average liver concentration, mean of mice 1-5, 7 h after oral 150 mg/kg, ±SEM): 14500 ± 600 nM
concentration at 7 h ([5]; plasma, 150 mg/kg, Average plasma concentration, mean of mice 1-5, 7 h after oral 150 mg/kg, ±SEM): 1400 ± 140 nM
concentration at 7 h ([5]; plasma, 150 mg/kg, Plasma Conc., individual mice 1-5, 7 h after oral 150 mg/kg, LC/MS/MS): 1310 nM
Average gallbladder concentration ([5]; mean of mice 1-5, 7 h after oral 150 mg/kg, ±SEM): 18.4 ± 1.6 mM
accumulation in liver and plasma, fold lower than in gallbladder ([5]; on average, 7 h after oral 150 mg/kg): at least 1,000 fold
Papp [6]: 0.043 ×10⁻⁶ cm/s
normVmax (normalized to taurocholate Vmax on the same occasion) [7]: 0.24
stability: concentration at t=4 h vs initial concentration ([8]; 0.1 M HCl, 5 μM): no evidence of degradation; also recorded: not different from initial concentration
stability: concentration at t=4 h vs initial concentration ([8]; rat plasma, 5 μM): no evidence of degradation; also recorded: not different from initial concentration
stability: concentration at t=4 h vs initial concentration ([8]; simulated intestinal fluid with pancreatic enzymes (SIF), pH 7.5, 5 μM): no evidence of degradation; also recorded: not different from initial concentration
Ki [9]: 21.5 ± 4 µM
Ki [10]: 2.64 ± 0.55 µM
solubility (Solubility in buffer): 33500 ± 1600 µM (≈ 20.3 mg/mL)
gallbladder concentration, fold higher in WT than in knockout mice ([11]; 7 h after gavage 150 mg/kg): 16.1 fold
gallbladder concentration ([11]; Asbt knockout (Slc10a2-/-) mice): 0.41 ± 0.14 mM
concentration at 7 h ([11]; liver, Asbt knockout mice, read-out: Liver concentration): 900 ± 30 nM
concentration at 7 h ([11]; liver, WT mice, read-out: Liver concentration): 4970 ± 1470 nM
concentration at 7 h ([11]; plasma, Asbt knockout mice, read-out: Plasma concentration): 220 ± 90 nM
concentration at 7 h ([11]; plasma, WT mice, read-out: Plasma concentration): 3800 ± 4150 nM
gallbladder concentration ([11]; wild-type (WT) mice): 6.61 ± 0.98 mM

C[C@H](CCC(=O)NCCS(=O)(=O)O)[C@H]1CC[C@H]2[C@@H]3[C@H](O)C[C@@H]4C[C@H](O)CC[C@]4(C)[C@H]3C[C@H](O)[C@]12C [taurocholate]
Km [12]: 5.31 µM

B1: human Na+/taurocholate cotransporting polypeptide (hNTCP) (Homo sapiens) (protein)
chain: MEAHNASAPFNFTLPPNFGKRPTDLALSVILVFMLFFIMLSLGCTMEFSKIKAHLWKPKGLAIALVAQYGIMPLTAFVLGKVFRLKNIEALAILVCGCSPGGNLSNVFSLAMKGDMNLSIVMTTCSTFCALGMMPLLLYIYSRGIYDGDLKDKVPYKGIVISLVLVLIPCTIGIVLKSKRPQYMRYVIKGGMIIILLCSVAVTVLSAINVGKSIMFAMTPLLIATSSLMPFIGFLLGYVLSALFCLNGRCRRTVSMETGCQNVQLCSTILNVAFPPEVIGPLFFFPLLYMIFQLGEGLLLIAIFWCYEKFKTPKDKTKMIYTAATTEETIPGALGNGTYKGEDCSPCTA
Km [13]: 2.19 ± 0.63 µM

B2: human apical sodium dependent bile acid transporter (hASBT) (Homo sapiens) (protein)
chain: MNDPNSCVDNATVCSGASCVVPESNFNNILSVVLSTVLTILLALVMFSMGCNVEIKKFLGHIKRPWGICVGFLCQFGIMPLTGFILSVAFDILPLQAVVVLIIGCCPGGTASNILAYWVDGDMDLSVSMTTCSTLLALGMMPLCLLIYTKMWVDSGSIVIPYDNIGTSLVSLVVPVSIGMFVNHKWPQKAKIILKIGSIAGAILIVLIAVVGGILYQSAWIIAPKLWIIGTIFPVAGYSLGFLLARIAGLPWYRCRTVAFETGMQNTQLCSTIVQLSFTPEELNVVFTFPLIYSIFQLAFAAIFLGFYVAYKKCHGKNKAEIPESKENGTEPESSFYKANGGFQPDEK
Km [14]: 73.2 ± 7.0 µM
